Experimental data taken from PubChem BioAssay (NCI).
Values joined by “and” are separate entries in the source; they are usually repeats but may differ in a detail not shown here. Identical values can stand only once.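 Growth conditions: 96-well plates. Treatment: test compound, 48 hours, 5 concentrations. Analysis: linear interpolation between bracketing concentrations; unreached endpoints set to highest concentration. GI50 = concentration required for 50% inhibition of growth. TGI is the concentration that stops growth completely.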

Experiments:
Experiment in all cases: NCI-60 cell line screen, 48 h
HOP-92 NSCLC = tested on: HOP-92 NSCLC
DU-145 prostate = tested on: DU-145 prostate
HCT-15 colon = tested on: HCT-15 colon
PC-3 prostate = tested on: PC-3 prostate
M14 melanoma = tested on: M14 melanoma
MOLT-4 leukemia = tested on: MOLT-4 leukemia
K-562 leukemia = tested on: K-562 leukemia
OVCAR-8 ovarian = tested on: OVCAR-8 ovarian
NCI-H226 lung = tested on: NCI-H226 lung
SNB-19 CNS = tested on: SNB-19 CNS

Compound | TGI (HOP-92 NSCLC) | TGI (DU-145 prostate) | TGI (HCT-15 colon) | TGI (PC-3 prostate) | TGI (M14 melanoma) | TGI (MOLT-4 leukemia) | TGI (K-562 leukemia) | TGI (OVCAR-8 ovarian) | TGI (NCI-H226 lung) | TGI (SNB-19 CNS) | GI50 (HOP-92 NSCLC) | GI50 (MOLT-4 leukemia)
C#CCOC(=O)C=[N+]=[N-] | > 10 µM | > 10 µM | > 10 µM | > 10 µM | > 10 µM | > 10 µM | > 10 µM | > 10 µM | > 10 µM | > 10 µM | – | –
N#C/C=C(/NC(=O)Nc1ccccc1)N1CCCC1 | > 62.2 µM | > 85.6 µM | > 100 µM | > 54.5 µM | > 100 µM | > 100 µM | > 100 µM | > 51.8 µM | > 65.9 µM | > 45.6 µM | – | –
CC(C)(C)OC(=O)C1C(=O)NC(=O)CC1C(OCc1ccccc1)C(OCc1ccccc1)C(COCc1ccccc1)OCc1ccccc1 (configuration not stated) | > 100 µM | > 100 µM | > 100 µM | > 100 µM | > 100 µM | > 100 µM | > 100 µM | > 100 µM | > 100 µM | > 100 µM | > 100 µM and 13.3 µM | 66 µM and 9.83 µM
CCCCCCCCCCCCCOCCOCCOCCCCC(O)CCCCCCCCCC1=C[C@H](C)OC1=O (some centres not stated) | – | 66.3 µM | 48 µM | 71.7 µM | > 100 µM | 37.2 µM | > 100 µM | > 100 µM | 38 µM | 43.7 µM | – | –
CCN(CC)c1c(-c2c(OC(C)C)c(=O)c2=O)c(=O)n2ccsc2c1OC(C)=O | > 100 µM | > 100 µM | > 100 µM | > 100 µM | > 100 µM | > 100 µM | > 100 µM | > 100 µM | > 100 µM | > 100 µM | – | –
CCOC(=O)c1nc2ccccc2nc1Nc1cc(OC)c(OC)c(OC)c1 | > 100 µM | > 100 µM | > 100 µM | – | > 100 µM | > 100 µM | > 100 µM | – | – | > 100 µM | – | –
c1ccc(C/C(=N\Nc2nc3ccccc3[nH]2)c2ccccn2)cc1 | 0.653 µM | 27.7 µM | 15.6 µM | 0.503 µM | 0.915 µM | 6.85 µM | > 100 µM | 2.08 µM | 0.295 µM | 17.9 µM | – | –
CCOc1cc2c(cc1OC)c[n+](C)c1c3cc(OC)c(OC)cc3ccc21 | > 60.3 µM | – | > 100 µM | – | > 100 µM | > 100 µM | > 49 µM | > 100 µM | 99 µM | > 100 µM | – | –
C[C@]12CCC(=O)C=C1CC[C@@H]1[C@@H]2CC[C@]2(C)C(=O)/C(=C/c3ccc([N+](=O)[O-])cc3)C[C@@H]12 | > 100 µM | > 100 µM | > 100 µM | > 100 µM | > 100 µM | > 100 µM | > 100 µM | > 100 µM | > 100 µM | > 100 µM | – | –
c1ccc(CCCN2C3CCC2CN(CCOC(c2ccccc2)c2ccccc2)C3)cc1 | 25.5 µM | 32 µM | 18.1 µM | 19.4 µM | 17.3 µM | 25.3 µM | 64 µM | 23.5 µM | 25.9 µM | 28.3 µM | – | –
Nc1nc(N)c2cc(-c3cc4ccccc4[nH]3)ccc2n1 | 35.2 µM | 58.8 µM | 55 µM | > 100 µM | 34.4 µM | 53.1 µM | – | > 100 µM | 93.7 µM | > 100 µM | – | –
CC(=O)Oc1ccc2c(c1)O/C(=C\c1ccc(N(C)C)cc1)C2=O | – | > 100 µM | > 100 µM | > 100 µM | > 100 µM | > 100 µM | > 100 µM | > 100 µM | > 100 µM | > 100 µM | – | –
C[C@]12CC[C@H]3[C@@H](CC=C4C[C@@H](N5CCCC5)CC[C@@]43C)[C@@H]1C/C(=C\c1ccc([N+](=O)[O-])cc1)[C@@H]2O | 27.7 µM | 34.7 µM | 28.4 µM | 88 µM | 30.2 µM | 4.99 µM | – | – | 36.2 µM | 59.2 µM | – | –
CSC(=Nc1ccccc1)c1c(C)[nH]n(-c2ccccc2)c1=O | – | > 100 µM | > 100 µM | > 100 µM | > 100 µM | > 100 µM | > 100 µM | > 100 µM | > 100 µM | > 100 µM | – | –
COC(=O)C12CCCN1CCC2 | – | > 100 µM | > 100 µM | > 100 µM | > 100 µM | > 100 µM | > 100 µM | – | > 100 µM | > 100 µM | – | –
Cc1cnoc1/N=C1\C=C(Nc2oncc2C)C(=O)c2ccccc21 | > 100 µM | – | > 100 µM | – | > 100 µM | > 100 µM | > 100 µM | > 100 µM | > 100 µM | > 100 µM | – | –
NC(=O)N/N=C(\Cc1cc(=O)oc2cc(O)ccc12)C(=O)Nc1ccccc1C(N)=O | > 100 µM | > 100 µM | > 100 µM | > 100 µM | > 100 µM | > 100 µM | – | > 100 µM | > 100 µM | > 100 µM | – | –
CC1=C[C@H](C[C@]2(C)c3c(c4c(C)cccc4oc3=O)O[C@@H]2C)OC1=O | – | > 100 µM | > 100 µM | > 100 µM | > 100 µM | 72.3 µM | > 100 µM | > 100 µM | > 100 µM | > 100 µM | – | –
Cc1cc(C)c2c(-c3ccccc3)cc(=O)[nH]c2c1 | – | > 100 µM | > 100 µM | > 100 µM | > 100 µM | > 100 µM | > 100 µM | > 100 µM | > 100 µM | – | – | –
COc1ccc(/C=C2\C(=O)N(C(=O)c3ccc(NC(C)=O)cc3)N=C2C)cc1OC | – | – | > 100 µM | – | > 100 µM | > 100 µM | > 100 µM | > 100 µM | > 100 µM | > 100 µM | – | –
CC(C)(C)c1ccc(O)c(C(O)c2ccccn2)c1 (configuration not stated) | – | > 100 µM | > 100 µM | > 100 µM | – | > 100 µM | > 100 µM | > 100 µM | > 100 µM | > 100 µM | – | –
O=[N+]([O-])C(/C(Cl)=C(/Cl)N1CCOCC1)=C1\Nc2ccccc2O1 | – | > 100 µM | > 100 µM | > 100 µM | > 100 µM | > 100 µM | > 100 µM | > 100 µM | > 100 µM | > 100 µM | – | –
